The text below walks through data of publication PMC11359040, “Long-Circulating and Brain-Targeted Liposomes Loaded with Isoliquiritigenin: Formation, Characterization, Pharmacokinetics, and Distribution” (Pharmaceutics, 2024).

The nature of this series: Concentration of free isoliquiritigenin in saturated aqueous phase by HPLC. It is filed as physicochemical. The method, then: A total of 100 μL of ISL-LP solution was added to 900 μL of methanol and then subjected to vortex shaking for 10 min to disrupt the liposome structure. Following centrifugation at a speed of 13,000 rpm and a temperature of 4 °C for 10 min, 100 μL of the supernatant was diluted with methanol and then filtered through 0.22 μm membranes. Subsequently, 15 μL of the solution was injected into a high-performance liquid chromatography system (HPLC, Agilent 1100, Santa Clara, CA, USA) to detect the concentration of ISL according to the method previously reported. Before these steps, we quantified the concentration of free isoliquiritigenin in the saturated aqueous phase by HPLC. […] The drug loading (DL) and EE of ISL-LP were calculated according to Equations (1) and (2):EE (%) = (Wloaded/Wadded) × 100%(1) DL (%) = (Wloaded/Wtotal) × 100%(2) where Wloaded represents the amount of ISL loaded, Wadded denotes the weight of ISL added, and Wtotal signifies the weight of liposomes.

On to `O=C(/C=C/c1ccc(O)cc1)c1ccc(O)cc1O` [isoliquiritigenin, Isoliquiritigenin], for which the “concentration of free isoliquiritigenin in the saturated aqueous phase” value is on record as “below the detection limit”.
